These results are taken from publication PMC9587031, “Antibiotic polymyxin arranges lipopolysaccharide into crystalline structures to solidify the bacterial membrane” (Nature Communications, 2022).

One may read the MIC as the smallest concentration in the dilution series that meets the test's criterion for growth inhibition.

≈ marks a conversion by molar mass, not a printed value. Positions of bridges follow the written chain, without caps; N, C: chain ends. Non-standard residues stand in square brackets, D forms with d. Residues, ends and D or L forms follow the SMILES beside them. *: point of attachment. Heptanoyl(6-Me) = CC(C)CCCCC(=O)*; Dab = NCC[C@H](N)C(=O)O

Assay [1] relates to E. coli K-12 MG1655 carrying pAH213_mcr1. As to the kind of experiment: Colistin MIC, validation of plasmid pAH213_mcr1. It is filed as cell-based, Escherichia coli. An excerpt: (§1) In order to confer colistin resistance to the E. coli K-12 MG1655 strain and derivatives, an mcr-1 gene together with its native promoter region was cloned onto the pBR322 plasmid backbone, creating pAH213_mcr1. Briefly, the mcr-1 gene of colistin-resistant E. coli strain 2 HS-C was identified as gene E4F32_22195 on plasmid p2HS-C-1 (GenBank CP038181.1) and amplified together with ≈ 400 nucleotides of its immediate upstream region using primers prAH2159 and prAH2160. The backbone of pBR322 without its tetracycline resistance cassette was amplified using primers prAH1981 and prAH1982. Using 25 bp overhangs to the backbone included in prAH2159 / prAH2160, insert and backbone were ligated using Gibson assembly. The resulting plasmid pAH213_mcr1 confers colistin resistance to the E. coli K-12 MG1655 strain with a minimal inhibitory concentration of 5 µg/ml (empty vector and vector-free controls: 0.5 µg/ml). Robust growth of the E. coli K-12 MG1655 strains carrying pAH213_mcr1 was observed up to a concentration of 3 µg/ml. The plasmids were transferred to the cells using the transformation and storage solution (TSS) method.

Assay [2] relates to OM patches from E. coli MG1655 WT strain. As to the kind of experiment: AFM imaging of crystalline structure formation on OM patches. More on the design: species or system Escherichia coli. The note with it: DPBS supplemented with 5 mM Mg2+ (MgCl2). As to the method: E. coli MG1655 strains were transformed with the pY200 plasmid that carries an mCherry gene preceded by the periplasmic export signal of the skp protein under control of the lux promoter. This construct enables over-expression of mCherry into the periplasmic space, which in turn increases the OMV production. Cultures were grown in LB medium (Difco) with 50 µg/ml spectinomycin (Fischer Scientific) at 37 °C. Expression of mCherry was induced at an OD600 ≈ 0.4 by N-(β ketocaproyl)-L-homoserine lactone (HSL, Cayman Chemical). After induction, the cultures were grown until they reached the early stationary phase, and bacteria were removed by centrifugation at 10,000 g for 10 min. […]
OMVs produced from different E. coli MG1655 strains were adsorbed onto freshly cleaved mica for 15 min in DPBS buffer at room temperature. […] The images were recorded using two different AFM cantilevers: PEAKFORCE‐HiRs‐F‐A (Bruker) with a nominal spring constant of 0.4 N/m, a resonance frequency of ≈ 165 kHz in liquid, and a sharpened silicon tip with a nominal radius of ≈ 1 nm or SCANASYST-FLUID + (Bruker) with a nominal spring constant of 0.7 N/m, a resonance frequency of ≈ 150 kHz in liquid, and a sharpened silicon tip with a nominal radius of ≈ 2 nm. […] Images were recorded at 2 kHz oscillation frequency, by applying an imaging force of 100–120 pN with a vertical amplitude of 30 nm. […]

In assay [3] the test system is E. coli K-12 MG1655 empty vector and vector-free controls. Put plainly: Colistin MIC, validation of plasmid pAH213_mcr1, controls. Type of assay: cell-based, Escherichia coli.
Source text: as §1

The subject of assay [4] is E. coli MG1655 MCR-1. Put plainly: MIC, automated multi-well growth assay. Type of assay: cell-based, Escherichia coli. As to conditions: E. coli MG1655 containing the MCR-1 plasmid, growth curves (Fig. 1b).
Source text: as §1, with “The plasmids were transferred to the cells using the transformation and storage solution (TSS) method.” left out
All titration assays to measure the growth curve of E. coli MG1655 strains at different polymyxin concentrations were performed on a Tecan EVO 200 robotic platform in 96-well plates (cell culture microplates 96 well µClear® CELLSTAR®, Greiner Bio-One GmbH). […] OD600 measurements were recorded using a Tecan Infinite M200 Pro plater reader.

The subject of assay [5] is E. coli MG1655 WT. As to the kind of experiment: MIC, automated multi-well growth assay. It is filed as cell-based, Escherichia coli. As to conditions: for MIC: MG1655, 10 h. Here is the method:
All titration assays to measure the growth curve of E. coli MG1655 strains at different polymyxin concentrations were performed on a Tecan EVO 200 robotic platform in 96-well plates (cell culture microplates 96 well µClear® CELLSTAR®, Greiner Bio-One GmbH). Plates with serial dilutions of the tested polymyxin derivatives were prepared and overnight cultures of the strains were combined to a final OD600 ≈ 0.05. Titration culture plates were placed in a shaking platform equipped with a Kuhner ES-X shaking module (Adolf Kühner AG) mounted inside an aluminum housing (Tecan) and temperature-controlled using an “Icecube” (Life Imaging Services). Titration cultures were grown for 10 h at 37 °C with shaking at 300 rpm in clear-bottom 96-well plates, which were sealed with peelable foil with small slits (Agilent) to prevent liquid evaporation and guarantee sterility. OD600 measurements were recorded using a Tecan Infinite M200 Pro plater reader.

With Polymyxin E, the “concentration up to which robust growth was observed” value in assay [1] (E. coli K-12 MG1655 strains carrying pAH213_mcr1) is not above 3 µg/mL. Moreover, the figures for the minimal inhibitory concentration in assay [1] (E. coli K-12 MG1655 with plasmid pAH213_mcr1) and in assay [3] were 5 µg/mL and 0.5 µg/mL, respectively. Besides, in assay [2], the “polymyxin E concentration at which crystalline structures formed” value is 1.2 mg/L. In addition, in assay [4], the “polymyxin E concentration in which the strain was able to grow” value was 32 mg/L. Also, in assay [5] (E. coli K-12 MG1655 WT, growth curves with increasing antibiotic concentration (Fig. 1b)), the “MIC from bacterial growth curves” value lay within 0.5 to 1 µg/mL.

In the case of `CC(C)CCCCC(=O)N[C@@H](CCN)C(=O)N[C@H](C(=O)N[C@@H](CCN)C(=O)N[C@H]1CCNC(=O)[C@@H]([C@H](C)O)NC(=O)[C@H](CCN)NC(=O)[C@H](CCN)NC(=O)[C@H](CC(C)C)NC(=O)[C@@H](CC(C)C)NC(=O)[C@H](CCN)NC1=O)[C@@H](C)O` [Polymyxin E with stereochemistry change] ({Heptanoyl(6-Me)}-[Dab]T[Dab][Dab][Dab][dL]L[Dab][Dab][dT]; lactam 4-C), the minimal inhibitory concentration (MIC) in assay [5] is 32 µg/mL (≈ 27.7 µM).

`CC(C)C[C@@H]1NC(=O)[C@@H](CC(C)C)NC(=O)[C@H](CCN)NC(=O)[C@@H](NC(=O)[C@H](CCN)NC(=O)[C@@H](NC(=O)[C@@H](N)CCN)[C@@H](C)O)CCNC(=O)[C@H]([C@@H](C)O)NC(=O)[C@H](CCN)NC(=O)[C@H](CCN)NC1=O` [Polymyxin E intermediate-length] (H-[Dab]T[Dab][Dab][Dab][dL]L[Dab][Dab]T; lactam 4-C): the MIC in assay [5] came out at 8 µg/mL (≈ 7.77 µM).
